Experimental data taken from article PMC4662070 (Nature communications, 2015).

Target: FABP5 (Homo sapiens, UniProt Q01469)
Experiment: fluorescence titration
Type: binding

Chain of FABP5 (Q01469 2-135): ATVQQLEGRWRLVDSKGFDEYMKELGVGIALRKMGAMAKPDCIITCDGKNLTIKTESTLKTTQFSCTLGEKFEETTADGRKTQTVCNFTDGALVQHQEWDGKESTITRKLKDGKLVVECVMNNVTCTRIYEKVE

Kd: 0.07 ± 0.0064 µM
SMILES: O=S(=O)(O)c1cccc2cccc(Nc3ccccc3)c12 [ANS, 1-anilinonaphthalene-8-sulfonic acid]
